Source: article PMC6054628

Key:
[1] = Head-to-tail native chemical ligation in two-module microfluidic flow: SEAon peptide amide rearranged to SEAE thioester (pH 1, TCEP, 60 min, 90 or 65 C), then MPAA (0.4 M)/Na2HPO4 (0.2 M) pH 7.3 cyclisation onto N-terminal Cys, 4 min; settings: 30-membered ring, water (phosphate buffer, MPAA, TCEP; decane segmented carrier), 0.6 mM, 37.0 °C, 0.067 h, 2 steps, scale: %
[2] = Head-to-tail native chemical ligation in two-module microfluidic flow: SEAon peptide amide rearranged to SEAE thioester (pH 1, TCEP, 60 min, 90 or 65 C), then MPAA (0.4 M)/Na2HPO4 (0.2 M) pH 7.3 cyclisation onto N-terminal Cys; settings: water (phosphate buffer, MPAA, TCEP; decane segmented carrier; 6 M Gn.HCl for 4l-p), 0.6 mM, 37.0 °C, 2 steps
[3] = the molecule shown is the open-chain precursor, 54-membered ring, 0.25 h

## CC[C@H](C)[C@@H]1NC(=O)[C@H](CS)NC(=O)[C@H](C(C)C)NC(=O)CNC(=O)[C@H](Cc2c[nH]cn2)NC(=O)[C@H](C(C)C)NC(=O)[C@@H]2CCCN2C(=O)[C@H](CCC(=O)O)NC(=O)[C@H](CCCCN)NC(=O)[C@H](CC(C)C)NC1=O [H-CILKEPVHGV-SEAon (via SEAE thioester)]
[1]; from CC[C@H](C)[C@H](NC(=O)[C@@H](N)CS)C(=O)N[C@@H](CC(C)C)C(=O)N[C@@H](CCCCN)C(=O)N[C@@H](CCC(=O)O)C(=O)N1CCC[C@H]1C(=O)N[C@H](C(=O)N[C@@H](Cc1c[nH]cn1)C(=O)NCC(=O)N[C@H](C(=O)SCCNCCS)C(C)C)C(C)C
  ring closure, conversion by HPLC: 56
[2]; from CC[C@H](C)[C@H](NC(=O)[C@@H](N)CS)C(=O)N[C@@H](CC(C)C)C(=O)N[C@@H](CCCCN)C(=O)N[C@@H](CCC(=O)O)C(=O)N1CCC[C@H]1C(=O)N[C@H](C(=O)N[C@@H](Cc1c[nH]cn1)C(=O)NCC(=O)N[C@H](C(=O)SCCNCCS)C(C)C)C(C)C, 30-membered ring, 0.067 h
  ring closure, yield over several steps: 46%

## CC[C@H](C)[C@@H]1NC(=O)[C@H](CS)NC(=O)[C@@H]2CCCN2C(=O)CNC(=O)[C@H](Cc2c[nH]cn2)NC(=O)[C@H](C(C)C)NC(=O)CNC(=O)[C@H](CCC(=O)O)NC(=O)[C@H](CCCCN)NC(=O)[C@H](CC(C)C)NC1=O [H-CILKEGVHGP-SEAon (via SEAE thioester)]
[1]; from CC[C@H](C)[C@H](NC(=O)[C@@H](N)CS)C(=O)N[C@@H](CC(C)C)C(=O)N[C@@H](CCCCN)C(=O)N[C@@H](CCC(=O)O)C(=O)NCC(=O)N[C@H](C(=O)N[C@@H](Cc1c[nH]cn1)C(=O)NCC(=O)N1CCC[C@H]1C(=O)SCCNCCS)C(C)C
  ring closure, conversion by HPLC: 70
[2]; from CC[C@H](C)[C@H](NC(=O)[C@@H](N)CS)C(=O)N[C@@H](CC(C)C)C(=O)N[C@@H](CCCCN)C(=O)N[C@@H](CCC(=O)O)C(=O)NCC(=O)N[C@H](C(=O)N[C@@H](Cc1c[nH]cn1)C(=O)NCC(=O)N1CCC[C@H]1C(=O)SCCNCCS)C(C)C, 30-membered ring, 0.067 h
  ring closure, yield over several steps: 38%

## H-CRCLCRRGVCRCICTRGF-SEAon (via SEAE thioester)
[2]; [3]
  ring closure, yield over several steps: 23%

## H-CRAIATRGFARALARRGV-SEAon (via SEAE thioester)
[2]; the molecule shown is the open-chain precursor, 54-membered ring, 0.067 h
  ring closure, yield over several steps: 37%

## CC[C@H](C)[C@@H]1NC(=O)[C@H](CS)NC(=O)[C@H](C(C)C)NC(=O)CNC(=O)[C@H](Cc2c[nH]cn2)NC(=O)[C@H](C(C)C)NC(=O)CNC(=O)[C@H](CCC(=O)O)NC(=O)[C@H](CCCCN)NC(=O)[C@H](CC(C)C)NC1=O [H-CILKEGVHGV-SEAon (via SEAE thioester)]
[1]; from CC[C@H](C)[C@H](NC(=O)[C@@H](N)CS)C(=O)N[C@@H](CC(C)C)C(=O)N[C@@H](CCCCN)C(=O)N[C@@H](CCC(=O)O)C(=O)NCC(=O)N[C@H](C(=O)N[C@@H](Cc1c[nH]cn1)C(=O)NCC(=O)N[C@H](C(=O)SCCNCCS)C(C)C)C(C)C
  ring closure, conversion by HPLC: 73
[2]; from CC[C@H](C)[C@H](NC(=O)[C@@H](N)CS)C(=O)N[C@@H](CC(C)C)C(=O)N[C@@H](CCCCN)C(=O)N[C@@H](CCC(=O)O)C(=O)NCC(=O)N[C@H](C(=O)N[C@@H](Cc1c[nH]cn1)C(=O)NCC(=O)N[C@H](C(=O)SCCNCCS)C(C)C)C(C)C, 30-membered ring, 0.067 h
  ring closure, yield over several steps: 46%

## CC[C@H](C)[C@@H]1NC(=O)[C@H](CS)NC(=O)[C@H](CC(C)C)NC(=O)CNC(=O)[C@H](Cc2c[nH]cn2)NC(=O)[C@H](C(C)C)NC(=O)[C@@H]2CCCN2C(=O)CNC(=O)[C@H](CC(N)=O)NC(=O)[C@H](CC(C)C)NC1=O [H-CILNGPVHGL-SEAon (via SEAE thioester)]
[1]; from CC[C@H](C)[C@H](NC(=O)[C@@H](N)CS)C(=O)N[C@@H](CC(C)C)C(=O)N[C@@H](CC(N)=O)C(=O)NCC(=O)N1CCC[C@H]1C(=O)N[C@H](C(=O)N[C@@H](Cc1c[nH]cn1)C(=O)NCC(=O)N[C@@H](CC(C)C)C(=O)SCCNCCS)C(C)C
  ring closure, conversion by HPLC: 85
[2]; from CC[C@H](C)[C@H](NC(=O)[C@@H](N)CS)C(=O)N[C@@H](CC(C)C)C(=O)N[C@@H](CC(N)=O)C(=O)NCC(=O)N1CCC[C@H]1C(=O)N[C@H](C(=O)N[C@@H](Cc1c[nH]cn1)C(=O)NCC(=O)N[C@@H](CC(C)C)C(=O)SCCNCCS)C(C)C, 30-membered ring, 0.067 h
  ring closure, yield over several steps: 80%

## CC[C@H](C)[C@@H]1NC(=O)[C@H](CS)NC(=O)[C@H](CC(C)C)NC(=O)CNC(=O)[C@H](Cc2c[nH]cn2)NC(=O)[C@H](C(C)C)NC(=O)[C@@H]2CCCN2C(=O)CNC(=O)[C@H](CC(=O)O)NC(=O)[C@H](CC(C)C)NC1=O [H-CILDGPVHGL-SEAon (via SEAE thioester)]
[1]; from CC[C@H](C)[C@H](NC(=O)[C@@H](N)CS)C(=O)N[C@@H](CC(C)C)C(=O)N[C@@H](CC(=O)O)C(=O)NCC(=O)N1CCC[C@H]1C(=O)N[C@H](C(=O)N[C@@H](Cc1c[nH]cn1)C(=O)NCC(=O)N[C@@H](CC(C)C)C(=O)SCCNCCS)C(C)C
  ring closure, conversion by HPLC: 80
[2]; from CC[C@H](C)[C@H](NC(=O)[C@@H](N)CS)C(=O)N[C@@H](CC(C)C)C(=O)N[C@@H](CC(=O)O)C(=O)NCC(=O)N1CCC[C@H]1C(=O)N[C@H](C(=O)N[C@@H](Cc1c[nH]cn1)C(=O)NCC(=O)N[C@@H](CC(C)C)C(=O)SCCNCCS)C(C)C, 30-membered ring, 0.067 h
  ring closure, yield over several steps: 64%

## H-CTRGFCRCLCRRGVCRCI-SEAon (via SEAE thioester)
[2]; [3]
  ring closure, yield over several steps: 34%

## H-CQPWSSMIPHEHSFLPSSYRGKDLQENY-SEAon (via SEAE thioester)
[2]; the molecule shown is the open-chain precursor, 84-membered ring, 0.25 h
  ring closure, yield over several steps: 41%

## CC[C@H](C)[C@@H]1NC(=O)CNC(=O)[C@H](Cc2c[nH]cn2)NC(=O)[C@H](C(C)C)NC(=O)CNC(=O)[C@H](CCC(=O)O)NC(=O)[C@H](CCCCN)NC(=O)[C@H](CC(C)C)NC(=O)[C@H]([C@@H](C)CC)NC(=O)[C@H](CS)NC1=O [H-CILKEGVHGI-SEAon (via SEAE thioester)]
[1]; from CC[C@H](C)[C@H](NC(=O)[C@@H](N)CS)C(=O)N[C@@H](CC(C)C)C(=O)N[C@@H](CCCCN)C(=O)N[C@@H](CCC(=O)O)C(=O)NCC(=O)N[C@H](C(=O)N[C@@H](Cc1c[nH]cn1)C(=O)NCC(=O)N[C@H](C(=O)SCCNCCS)[C@@H](C)CC)C(C)C
  ring closure, conversion by HPLC: 96
[2]; from CC[C@H](C)[C@H](NC(=O)[C@@H](N)CS)C(=O)N[C@@H](CC(C)C)C(=O)N[C@@H](CCCCN)C(=O)N[C@@H](CCC(=O)O)C(=O)NCC(=O)N[C@H](C(=O)N[C@@H](Cc1c[nH]cn1)C(=O)NCC(=O)N[C@H](C(=O)SCCNCCS)[C@@H](C)CC)C(C)C, 30-membered ring, 0.067 h
  ring closure, yield over several steps: 51%

## H-CRCICTRGFCRCLCRRGV-SEAon (via SEAE thioester)
[2]; [3]
  ring closure, yield over several steps: 29%

## CC[C@H](C)[C@@H]1NC(=O)[C@H](CS)NC(=O)[C@H](C(C)C)NC(=O)CNC(=O)[C@H](Cc2c[nH]cn2)NC(=O)[C@H](C(C)C)NC(=O)[C@@H]2CCCN2C(=O)CNC(=O)[C@H](CC(N)=O)NC(=O)[C@H](CC(C)C)NC1=O [H-CILNGPVHGV-SEAon (via SEAE thioester)]
[1]; from CC[C@H](C)[C@H](NC(=O)[C@@H](N)CS)C(=O)N[C@@H](CC(C)C)C(=O)N[C@@H](CC(N)=O)C(=O)NCC(=O)N1CCC[C@H]1C(=O)N[C@H](C(=O)N[C@@H](Cc1c[nH]cn1)C(=O)NCC(=O)N[C@H](C(=O)SCCNCCS)C(C)C)C(C)C
  ring closure, conversion by HPLC: 63
[2]; from CC[C@H](C)[C@H](NC(=O)[C@@H](N)CS)C(=O)N[C@@H](CC(C)C)C(=O)N[C@@H](CC(N)=O)C(=O)NCC(=O)N1CCC[C@H]1C(=O)N[C@H](C(=O)N[C@@H](Cc1c[nH]cn1)C(=O)NCC(=O)N[C@H](C(=O)SCCNCCS)C(C)C)C(C)C, 30-membered ring, 0.067 h
  ring closure, yield over several steps: 66%
